According to patent US20070286896A1, “Therapeutic or Diagnostic Drug for Inflammatory Disease Comprising Targeting Liposome” (NATIONAL INSTITUTE OF ADVANCED INDUSTRIAL SCIENCE AND …, priority 2003, published 2007):

Columns and labels:
Type in all cases: in vivo, DBA/1J mice
[1] = test system: Collagen type II induced arthritis (CIA) mice; experiment: Medical treatment of RA mice by intravenous administration of DDS liposomes
Protocol: (§1) A water solution of the collagen and the CFA were mixed at a volume ratio of 2:1 to prepare an emulsion containing 200 μg of the collagen per 100 μL thereof. This emulsion was subcutaneously injected into the bottom of the tails of the mice (Day 0). After 21 days from the administration (Day 21), a water solution of the collagen and the IFA were mixed at a volume ratio of 2:1 to prepare an emulsion containing 200 μg of the collagen per 100 μL thereof, and this emulsion was subcutaneously injected again into the bottom of the tails of the mice.
(§2) After the injection, the limbs of the mice were observed on a three times/week basis, and inflammation was quantitatively determined by giving it a point according to the following criteria: for each limb, normal: 0 point, mild inflammation or redness: 1 point, severe redness, dilatation, or reduced use: 2 points, and deformed palm, plantar region, or joint region: 3 points (0 point lowest, 12 points highest, per mouse). Inflammatory activity (hereinafter, referred to as IA) was determined by applying the obtained point to the following formula: Inflammatory activity (%)=points of all limbs/12×100.
Mice with arthritis received medical treatment by injecting a therapeutic drug to the tail veins thereof. The intravenous injection was performed on a twice/week basis for a period from Day 28 to Day 46. […]

[2] = test system: Collagen type II induced arthritis (CIA) mice; experiment: Medical treatment of RA mice by oral administration of DDS liposomes; conditions: oral three times/week Day 28 to Day 39; free Pred 100 μg, L-Pred 10 μg per administration
Protocol: as §1, §2
Mice with arthritis received medical treatment by orally administering a therapeutic drug to the mice. The oral administration was performed on a three times/week basis for a period from Day 28 to Day 39. […]

[3] = test system: Collagen type II induced arthritis (CIA) mice; experiment: Test for determining proper amount of prednisolone phosphate for RA mice; conditions: Day 28 to Day 46

C[C@]12C=CC(=O)C=C1CC[C@@H]1[C@@H]2[C@@H](O)C[C@@]2(C)[C@H]1CC[C@]2(O)C(=O)COP(=O)(O)O [prednisolone phosphate]
Inflammatory activity (IA) ([1]; intravenous 100 μg/injection (200 μg/week) prednisolone phosphate, Day 37): approximately 50% | IA compared with other groups / progression of inflammation ([1]; intravenous twice/week Day 28 to Day 46, free Pred 100 μg/injection, liposomes 10 μg/injection): no evident difference was observed between the IA of the free Pred group and the IA of the Control group | difference in IA among the control, free Pred (until Day 32) and L-Pred groups [2]: no significant difference | IA compared with control group ([3]; intravenous 250 μg/injection (500 μg/week)): No significant difference | rise in IA / progression of the inflammation ([3]; intravenous 500 μg/injection (1000 μg/week)): a rise in IA was not observed, and the progression of the inflammation was suppressed
